In ChEMBL document CHEMBL4325871 (Eur J Med Chem, 2019) one finds Activity and inhibition data, which are given here for two compounds.

In assay [1] the target is Myosin light chain kinase (Homo sapiens) (UniProt Q32MK0). Description: Inhibition of human MYLK3 assessed as residual activity at 1 uM using KKRPQRRYSNVF as substrate by [gamma-33P]-ATP assay relative to control.
The target of assay [2] is RAC-gamma serine/threonine-protein kinase (Homo sapiens) (UniProt Q9Y243). Description: Inhibition of human AKT3 assessed as residual activity at 1 uM using KGSGSGRPRTSSFAEG as substrate by [gamma-33P]-ATP assay relative to control.
Sequence of RAC-gamma serine/threonine-protein kinase (Homo sapiens) (Q9Y243 whole entry): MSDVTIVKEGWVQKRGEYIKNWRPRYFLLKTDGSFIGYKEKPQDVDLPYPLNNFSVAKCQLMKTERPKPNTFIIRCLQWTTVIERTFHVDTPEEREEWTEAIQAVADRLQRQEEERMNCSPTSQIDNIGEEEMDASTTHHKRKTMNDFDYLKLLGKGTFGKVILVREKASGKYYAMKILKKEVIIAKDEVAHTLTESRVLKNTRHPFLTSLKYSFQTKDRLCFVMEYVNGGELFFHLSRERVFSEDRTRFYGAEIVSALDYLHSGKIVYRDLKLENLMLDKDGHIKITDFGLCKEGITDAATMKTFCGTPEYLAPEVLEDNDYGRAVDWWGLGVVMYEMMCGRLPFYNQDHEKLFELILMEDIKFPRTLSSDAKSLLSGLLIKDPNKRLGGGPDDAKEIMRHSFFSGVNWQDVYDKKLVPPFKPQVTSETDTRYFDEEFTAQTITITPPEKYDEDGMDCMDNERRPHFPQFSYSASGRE
The target of assay [3] is Bone morphogenetic protein receptor type-2 (Homo sapiens) (UniProt Q13873). Description: Inhibition of human BMPR2 assessed as residual activity at 1 uM using MBP as substrate by [gamma-33P]-ATP assay relative to control.
For another assay, the target named is TGF-beta receptor type-2 (Homo sapiens, UniProt P37173). Nature of the assay: Inhibition of human TGFBR2 assessed as residual activity at 1 uM using MBP as substrate by [gamma-33P]-ATP assay relative to control.
Sequence of TGF-beta receptor type-2 (P37173 whole entry): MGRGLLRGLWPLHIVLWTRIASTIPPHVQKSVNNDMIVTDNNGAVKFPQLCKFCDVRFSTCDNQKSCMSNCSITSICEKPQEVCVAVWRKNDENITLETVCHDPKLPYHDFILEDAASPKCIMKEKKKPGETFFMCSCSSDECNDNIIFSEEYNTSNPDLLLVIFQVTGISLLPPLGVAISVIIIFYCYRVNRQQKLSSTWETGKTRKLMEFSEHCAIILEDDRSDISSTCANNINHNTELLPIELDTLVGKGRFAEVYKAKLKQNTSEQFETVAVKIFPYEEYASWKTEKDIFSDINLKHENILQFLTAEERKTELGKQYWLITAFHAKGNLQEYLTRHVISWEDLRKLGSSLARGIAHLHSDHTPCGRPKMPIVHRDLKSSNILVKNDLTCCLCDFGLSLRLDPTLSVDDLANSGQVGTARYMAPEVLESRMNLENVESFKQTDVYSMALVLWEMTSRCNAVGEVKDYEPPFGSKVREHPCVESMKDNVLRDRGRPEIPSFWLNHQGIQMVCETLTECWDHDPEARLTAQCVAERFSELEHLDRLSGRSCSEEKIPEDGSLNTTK
In assay [4] the target is T1, Serine/threonine-protein kinase Chk1 (Homo sapiens) (UniProt O14757).
T1 sequence (whole entry): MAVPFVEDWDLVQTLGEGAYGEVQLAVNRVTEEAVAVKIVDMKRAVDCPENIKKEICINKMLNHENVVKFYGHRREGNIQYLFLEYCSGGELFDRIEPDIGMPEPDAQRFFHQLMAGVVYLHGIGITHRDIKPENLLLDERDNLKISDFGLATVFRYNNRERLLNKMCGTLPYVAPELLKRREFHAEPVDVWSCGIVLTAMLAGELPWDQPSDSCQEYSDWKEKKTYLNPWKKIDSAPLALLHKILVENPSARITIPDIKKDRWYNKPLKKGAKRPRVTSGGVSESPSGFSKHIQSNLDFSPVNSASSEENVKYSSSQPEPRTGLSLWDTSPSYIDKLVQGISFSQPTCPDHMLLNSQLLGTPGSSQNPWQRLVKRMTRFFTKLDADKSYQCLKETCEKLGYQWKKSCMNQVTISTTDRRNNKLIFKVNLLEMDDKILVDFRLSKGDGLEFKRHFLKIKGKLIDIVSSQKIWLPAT
Nature of the assay: Inhibition of hydroxyurea-induced CHK1 phosphorylation at S345 residue in human HCT116 cells at 20 uM treated for 8 hrs starting from 24 hrs post hydroxyurea addition by Western blot analysis. In kind it is cell-based. A general note: In western blotting, separated proteins are transferred to a membrane and probed.

In assay [5] the target is SRSF protein kinase 2 (Homo sapiens) (UniProt P78362). Nature of the assay: Inhibition of human SRPK2 assessed as residual activity at 1 uM using GRSRSRSRSR as substrate by [gamma-33P]-ATP assay relative to control.
The target of assay [6] is Aurora kinase B (Homo sapiens) (UniProt Q96GD4). Nature of the assay: Inhibition of human Aurora B assessed as residual activity at 1 uM using [H-LRRASLG] as substrate by [gamma-33P]-ATP assay relative to control.
Sequence of Aurora kinase B (Homo sapiens) (Q96GD4 whole entry): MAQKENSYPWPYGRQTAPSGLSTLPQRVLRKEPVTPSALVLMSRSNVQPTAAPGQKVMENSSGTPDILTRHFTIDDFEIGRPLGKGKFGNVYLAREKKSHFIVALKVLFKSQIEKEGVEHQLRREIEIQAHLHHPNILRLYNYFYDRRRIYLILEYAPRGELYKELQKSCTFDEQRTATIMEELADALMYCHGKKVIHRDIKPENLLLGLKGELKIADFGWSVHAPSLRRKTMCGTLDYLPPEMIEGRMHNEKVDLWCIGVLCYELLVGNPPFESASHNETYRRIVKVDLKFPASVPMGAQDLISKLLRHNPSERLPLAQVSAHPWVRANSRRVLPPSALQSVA
The target of assay [7] is Calcium/calmodulin-dependent protein kinase kinase 2 (Homo sapiens) (UniProt Q96RR4). Description: Inhibition of human CAMKK2 assessed as residual activity at 1 uM using MBP as substrate by [gamma-33P]-ATP assay relative to control.
Sequence of Calcium/calmodulin-dependent protein kinase kinase 2 (Homo sapiens) (Q96RR4 2-588 limits assumed): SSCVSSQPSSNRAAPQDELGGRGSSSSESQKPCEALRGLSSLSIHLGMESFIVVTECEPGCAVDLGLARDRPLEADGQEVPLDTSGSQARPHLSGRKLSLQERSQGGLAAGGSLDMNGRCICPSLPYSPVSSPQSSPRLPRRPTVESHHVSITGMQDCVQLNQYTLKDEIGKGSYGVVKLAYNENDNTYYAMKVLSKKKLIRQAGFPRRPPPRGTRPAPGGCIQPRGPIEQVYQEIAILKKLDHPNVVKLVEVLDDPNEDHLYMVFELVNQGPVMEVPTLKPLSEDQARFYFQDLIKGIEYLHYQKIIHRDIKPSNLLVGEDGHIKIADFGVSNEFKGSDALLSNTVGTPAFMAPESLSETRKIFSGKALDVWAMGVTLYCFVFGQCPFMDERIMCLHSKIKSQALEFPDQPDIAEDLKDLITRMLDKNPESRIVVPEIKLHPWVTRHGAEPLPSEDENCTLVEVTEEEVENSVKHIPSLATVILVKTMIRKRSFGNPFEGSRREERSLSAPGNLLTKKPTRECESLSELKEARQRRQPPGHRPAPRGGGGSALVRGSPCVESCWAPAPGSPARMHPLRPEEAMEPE
Assay [8] addresses Leucine-rich repeat serine/threonine-protein kinase 2 (Homo sapiens) (UniProt Q5S007). Nature of the assay: Inhibition of human LRRK2 assessed as residual activity at 1 uM using RLGRDKYKTLRQIRQ as substrate by [gamma-33P]-ATP assay relative to control.
The target of assay [9] is Protein kinase C delta type (Homo sapiens) (UniProt Q05655). Description: Inhibition of human PKCdelta assessed as residual activity at 1 uM using ERMRPRKRQGSVRRRV as substrate by [gamma-33P]-ATP assay relative to control.
In assay [10] the target is Receptor tyrosine-protein kinase erbB-2 (Homo sapiens) (UniProt P04626). Description: Inhibition of human ERBB2 assessed as residual activity at 1 uM using poly[Glu:Tyr] (4:1) as substrate by [gamma-33P]-ATP assay relative to control.
Sequence of Receptor tyrosine-protein kinase erbB-2 (Homo sapiens) (P04626 whole entry): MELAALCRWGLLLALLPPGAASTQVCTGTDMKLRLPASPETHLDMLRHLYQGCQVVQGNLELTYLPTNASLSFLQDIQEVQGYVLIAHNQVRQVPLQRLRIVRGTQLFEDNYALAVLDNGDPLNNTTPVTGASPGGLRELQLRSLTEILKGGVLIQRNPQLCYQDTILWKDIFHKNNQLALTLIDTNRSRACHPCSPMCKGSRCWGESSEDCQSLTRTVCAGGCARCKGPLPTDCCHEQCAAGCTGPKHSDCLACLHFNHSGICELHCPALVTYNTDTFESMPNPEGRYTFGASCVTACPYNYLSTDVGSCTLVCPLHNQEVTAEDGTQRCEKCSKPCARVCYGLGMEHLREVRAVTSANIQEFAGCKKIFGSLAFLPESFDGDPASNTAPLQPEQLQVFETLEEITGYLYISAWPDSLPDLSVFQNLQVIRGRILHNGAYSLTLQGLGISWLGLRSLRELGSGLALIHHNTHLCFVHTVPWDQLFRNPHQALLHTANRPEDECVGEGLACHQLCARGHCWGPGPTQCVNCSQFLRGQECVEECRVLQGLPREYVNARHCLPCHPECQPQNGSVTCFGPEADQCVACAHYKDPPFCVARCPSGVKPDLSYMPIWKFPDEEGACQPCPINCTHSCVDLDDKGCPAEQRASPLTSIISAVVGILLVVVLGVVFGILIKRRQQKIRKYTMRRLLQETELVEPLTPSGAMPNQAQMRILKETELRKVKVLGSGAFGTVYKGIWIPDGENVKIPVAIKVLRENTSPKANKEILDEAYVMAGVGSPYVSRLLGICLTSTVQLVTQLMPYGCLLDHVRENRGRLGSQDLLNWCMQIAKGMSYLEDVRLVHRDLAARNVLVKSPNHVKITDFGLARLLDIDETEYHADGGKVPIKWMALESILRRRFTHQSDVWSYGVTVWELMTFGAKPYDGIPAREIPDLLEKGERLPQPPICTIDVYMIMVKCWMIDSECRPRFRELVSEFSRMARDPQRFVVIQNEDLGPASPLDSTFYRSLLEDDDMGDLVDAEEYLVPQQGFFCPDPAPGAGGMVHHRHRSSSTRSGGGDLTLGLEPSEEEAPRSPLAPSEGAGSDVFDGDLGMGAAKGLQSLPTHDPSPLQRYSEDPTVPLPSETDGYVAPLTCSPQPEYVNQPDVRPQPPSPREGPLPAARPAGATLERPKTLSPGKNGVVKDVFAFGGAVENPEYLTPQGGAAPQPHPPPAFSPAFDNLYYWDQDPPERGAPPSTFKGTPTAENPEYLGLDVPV
For assay [11], the target named is Dual specificity mitogen-activated protein kinase kinase 2 (Homo sapiens) (UniProt P36507). Nature of the assay: Inhibition of human MEK2 assessed as residual activity at 1 uM using ERK2 as substrate by [gamma-33P]-ATP assay relative to control.
Assay [12] addresses Serine/threonine-protein kinase DCLK1 (Homo sapiens) (UniProt O15075). Description: Inhibition of human DCAMKL1 assessed as residual activity at 1 uM using KKLNRTLSFAEPG as substrate by [gamma-33P]-ATP assay relative to control.

Each structure is given as a SMILES string. Active and inactive are the calls of the source. No cut-off for these calls is given here.

Sequence of Myosin light chain kinase (Homo sapiens) (Q32MK0 whole entry): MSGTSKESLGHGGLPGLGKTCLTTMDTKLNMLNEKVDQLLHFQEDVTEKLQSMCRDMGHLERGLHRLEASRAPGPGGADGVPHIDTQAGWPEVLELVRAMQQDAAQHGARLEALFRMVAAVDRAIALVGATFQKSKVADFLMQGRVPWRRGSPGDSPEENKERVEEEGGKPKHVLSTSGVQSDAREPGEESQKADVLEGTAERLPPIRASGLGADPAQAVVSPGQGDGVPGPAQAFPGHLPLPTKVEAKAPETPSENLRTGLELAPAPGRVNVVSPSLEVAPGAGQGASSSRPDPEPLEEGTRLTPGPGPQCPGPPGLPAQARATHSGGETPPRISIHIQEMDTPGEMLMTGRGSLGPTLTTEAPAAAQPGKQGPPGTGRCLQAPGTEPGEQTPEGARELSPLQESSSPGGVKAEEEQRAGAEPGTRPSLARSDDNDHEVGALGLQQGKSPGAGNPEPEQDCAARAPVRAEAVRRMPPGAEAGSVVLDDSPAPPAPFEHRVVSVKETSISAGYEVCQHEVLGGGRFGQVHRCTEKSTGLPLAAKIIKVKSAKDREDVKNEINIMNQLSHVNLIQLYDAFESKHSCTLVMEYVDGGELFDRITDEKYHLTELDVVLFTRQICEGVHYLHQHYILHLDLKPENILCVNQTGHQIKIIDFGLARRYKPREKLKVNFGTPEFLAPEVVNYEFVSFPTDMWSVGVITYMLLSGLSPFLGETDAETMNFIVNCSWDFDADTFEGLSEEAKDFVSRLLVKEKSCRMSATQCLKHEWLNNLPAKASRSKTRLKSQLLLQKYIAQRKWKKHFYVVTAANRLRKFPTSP
Sequence of Serine/threonine-protein kinase DCLK1 (Homo sapiens) (O15075 whole entry): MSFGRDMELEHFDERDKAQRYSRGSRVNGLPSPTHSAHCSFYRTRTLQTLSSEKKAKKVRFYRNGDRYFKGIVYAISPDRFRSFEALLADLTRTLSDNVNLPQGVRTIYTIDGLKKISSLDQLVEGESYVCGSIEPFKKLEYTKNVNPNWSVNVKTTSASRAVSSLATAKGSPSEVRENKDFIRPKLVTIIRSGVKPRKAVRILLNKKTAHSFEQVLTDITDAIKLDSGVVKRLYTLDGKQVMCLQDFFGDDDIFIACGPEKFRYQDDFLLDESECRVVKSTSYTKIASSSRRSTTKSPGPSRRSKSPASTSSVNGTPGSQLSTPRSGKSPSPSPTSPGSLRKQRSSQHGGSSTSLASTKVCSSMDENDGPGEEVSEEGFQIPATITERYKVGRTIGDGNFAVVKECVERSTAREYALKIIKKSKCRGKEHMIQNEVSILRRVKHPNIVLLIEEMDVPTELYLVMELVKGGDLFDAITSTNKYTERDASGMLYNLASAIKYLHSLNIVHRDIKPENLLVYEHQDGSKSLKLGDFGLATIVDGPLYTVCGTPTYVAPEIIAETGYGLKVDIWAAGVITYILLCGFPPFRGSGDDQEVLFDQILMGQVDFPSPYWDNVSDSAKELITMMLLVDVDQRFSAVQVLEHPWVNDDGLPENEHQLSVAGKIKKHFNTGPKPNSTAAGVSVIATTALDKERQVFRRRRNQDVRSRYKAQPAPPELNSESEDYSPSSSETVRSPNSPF

Turning to `C(=C\c1ccccc1)/C[N+]12CN3CN(CN(C3)C1)C2`, the Activity in assay [1] was 92 to 96.4%; in assay [2], 95.9 to 96%; in assay [3] it was 96.8 to 98.9%; at TGF-beta receptor type-2 it was 111 to 119%; in assay [5] it was 107 to 111%; in assay [6], 95.1 to 95.4%. Besides, the inhibition result in [4] is “Active”.

Regarding `ClC/C=C/C[N+]12CN3CN(CN(C3)C1)C2`, the Activity lay within 83.7 to 87.4% in assay [7]; 91.5 to 93.5% in [8]; 115 to 117% in assay [9]; 96.7 to 96.8% in [10]; 85.2 to 94.1% in assay [11]; 92.8 to 93.2% in assay [12].
